# Experiments:
# [1] = tested on: dog; conditions: Chronic toxicity, beagle, Oral, Feed, dose end: 106 week, group: systemic
# [2] = tested on: rabbit; conditions: Prenatal developmental toxicity study, new zealand white, Oral, Gavage/Intubation, dose end: 19 GD, group: maternal
# [3] = tested on: rat; conditions: Multigenerational reproductive toxicity study, sprague dawley, Oral, Feed, dose end: 2 generation
# [4] = tested on: rat; conditions: Combined chronic toxicity/carcinogenicity; sprague dawley; Oral; Feed; dose end: 104 week; group: systemic; systemic / in life observation / body weight / body weight gain + systemic / pathology microscopic / kidney / concretion + systemic / …
# [5] = tested on: dog; conditions: Subchronic oral toxicity in nonrodent, beagle, Feed, dose end: 90 day, group: systemic
# [6] = tested on: rat; conditions: Multigenerational reproductive toxicity study, sprague dawley, Oral, Feed, dose end: 2 generation; remark: listed apart in the source
# [7] = tested on: rabbit; conditions: Prenatal developmental toxicity study; new zealand white; Oral; Gavage/Intubation; dose end: 19 GD; group: maternal; reproductive / reproductive performance / postimplantation loss / postimplantation loss + reproductive / reproductive performance / …
# [8] = tested on: mouse; conditions: Carcinogenicity, cd1, Oral, Feed, dose end: 18 month, group: systemic
# [9] = tested on: dog; conditions: Chronic toxicity, beagle, Oral, Feed, dose end: 12 month
# [10] = tested on: rat; conditions: Combined chronic toxicity/carcinogenicity, fischer, Oral, Feed, dose end: 2 year, group: systemic
# [11] = tested on: rat; conditions: Developmental neurotoxicity study; sprague dawley; Inhalation; Whole-Body; dose end: 365 PND; group: cannot be grouped; systemic / in life observation / body weight / body weight gain + systemic / in life observation / body weight / offspring (pup) weight
# [12] = tested on: rat; conditions: Subchronic oral toxicity in rodents, Feed, dose end: 90 day, group: systemic
# [13] = tested on: dog; conditions: Subchronic oral toxicity in nonrodent, beagle, Feed, dose end: 90 day, group: systemic, systemic / in life observation / clinical signs / defecation (diarrhea) + systemic / in life observation / clinical signs / emesis + …
# [14] = tested on: rat; conditions: Developmental neurotoxicity range-finding study; sprague dawley; Oral; Feed; dose end: 21 PND; group: cannot be grouped; systemic / in life observation / body weight / body weight + systemic / in life observation / body weight / body weight gain + systemic / in…
# [15] = tested on: mouse; conditions: Carcinogenicity; cd1; Oral; Feed; dose end: 104 week; group: systemic; systemic / in life observation / clinical signs / hyperactivity
# [16] = tested on: dog; conditions: Chronic toxicity, beagle, Oral, Feed, dose end: 52 week, group: systemic
# [17] = tested on: rat; conditions: Prenatal developmental toxicity study; wistar; Oral; Gavage/Intubation; dose end: 5 GD; group: maternal; reproductive / reproductive performance / implantations / implantations
# [18] = tested on: rat; conditions: Prenatal developmental toxicity study, other, Oral, Gavage/Intubation, dose end: 15 GD
# [19] = tested on: rat; conditions: Combined chronic toxicity/carcinogenicity, other, Oral, Feed, dose end: 27 month, group: systemic
# [20] = tested on: mouse; conditions: Combined chronic toxicity/carcinogenicity; other; Oral; Feed; dose end: 24 month; group: systemic; systemic / organ weight / thyroid gland / absolute + systemic / organ weight / thyroid gland / relative to body weight + systemic / organ …
# [21] = tested on: rat; conditions: Combined chronic toxicity/carcinogenicity, other, Oral, Feed, dose end: 27 month, group: systemic; remark: listed apart in the source
# [22] = tested on: rat; conditions: Multigenerational reproductive toxicity study, other, Oral, Feed, dose end: 3 generation
# [23] = tested on: rabbit; conditions: Sub-acute dermal toxicity, new zealand white, Topical, dose end: 28 day, group: systemic, systemic / in life observation / body weight / body weight + systemic / in life observation / food consumption / food consumption + systemic…
# [24] = tested on: rat; conditions: Sub-acute repeat dose toxicity, other, Oral, Feed, dose end: 28 day, group: systemic
# [25] = systemic / pathology microscopic / bone marrow / atrophy + systemic / pathology microscopic / kidney / congestion + systemic / pathology …
# [26] = reproductive / reproductive performance / resorptions / resorptions + systemic / in life observation / food consumption / food consumption
# [27] = group: offspring, systemic / in life observation / body weight / offspring (pup) weight
# [28] = group: parental, systemic / in life observation / body weight / body weight + systemic / in life observation / body weight / body weight gain + systemic / in…
# [29] = systemic / in life observation / body weight / body weight gain
# [30] = systemic / in life observation / body weight / body weight gain + systemic / in life observation / food consumption / food consumption
# [31] = group: offspring, systemic / in life observation / body weight / offspring (pup) weight + developmental / offspring survival late / lactation index / …
# [32] = group: parental, systemic / in life observation / food consumption / food consumption + systemic / in life observation / body weight / body weight + systemic…
# [33] = group: reproductive, reproductive / offspring survival early / birth index / live birth index
# [34] = systemic / organ weight / liver / nos + systemic / pathology microscopic / liver / eosinophilic focus + systemic / pathology microscopic / …
# [35] = group: reproductive, reproductive / reproductive performance / estrous cycle / periodicity
# [36] = group: systemic, systemic / in life observation / body weight / body weight + systemic / in life observation / body weight / body weight gain + systemic / in…
# [37] = group: systemic, systemic / pathology microscopic / uterus / estrus
# [38] = systemic / pathology gross / stomach / discolored + systemic / pathology gross / stomach / foci + systemic / pathology gross / stomach / …
# [39] = systemic / clinical chemistry / urea nitrogen / urea + systemic / clinical chemistry / alkaline phosphatase (alp/alk) / alkaline phosphatase…
# [40] = systemic / in life observation / clinical signs / tremors + systemic / clinical chemistry / glucose / glucose + systemic / in life …
# [41] = group: developmental, developmental / developmental malformation / bone / unossified
# [42] = group: maternal, reproductive / reproductive performance / aborted / aborted + systemic / in life observation / body weight / body weight gain + systemic / …
# [43] = systemic / in life observation / body weight / body weight
# [44] = systemic / in life observation / body weight / body weight + systemic / pathology microscopic / testes / interstitial cell tumor benign + …
# [45] = systemic / in life observation / body weight / body weight + systemic / in life observation / food consumption / food consumption
# [46] = systemic / in life observation / body weight / body weight + systemic / in life observation / food consumption / food consumption + systemic…
# [47] = group: parental, systemic / in life observation / body weight / body weight + systemic / organ weight / brain / relative to body weight
# [48] = group: parental, systemic / in life observation / body weight / body weight + systemic / pathology gross / full gross necropsy / hyperemia + systemic / …
# [49] = group: reproductive, reproductive / reproductive performance / fertility / fertility + reproductive / reproductive performance / mating / mating + reproductive…
# [50] = group: reproductive, reproductive / reproductive performance / mating / mating + reproductive / reproductive performance / pregnancy / pregnancy
# [51] = systemic / organ weight / liver / absolute + systemic / organ weight / liver / relative to brain weight
# [52] = systemic / organ weight / liver / absolute + systemic / organ weight / liver / relative to brain weight + systemic / organ weight / liver / …
smiles,measurement,setting,value
CSc1nc(NC(C)C)nc(NC(C)C)n1 [Prometryn],LOAEL,[1]; [25],37.5 mg/kg/day
same,NEL,[1]; [25],0.375 mg/kg/day
same,NOAEL,[1]; [25],3.75 mg/kg/day
same,LEL,[1]; systemic / pathology microscopic / liver / cellular alteration + systemic / pathology microscopic / liver / depletion glycogen + systemic / …,3.75 mg/kg/day
same,LOAEL,[2]; [26],72 mg/kg/day
same,NEL,[2]; [26],12 mg/kg/day
same,NOAEL,[2]; [26],12 mg/kg/day
same,LEL,[2]; reproductive / reproductive performance / resorptions / resorptions + systemic / in life observation / food consumption / food consumption…,72 mg/kg/day
same,LEL,[3]; [27],47.8 mg/kg/day
same,LOAEL,[3]; [27],47.8 mg/kg/day
same,NEL,[3]; [27],0.6 mg/kg/day
same,NOAEL,[3]; [27],0.6 mg/kg/day
same,LEL,[3]; [28],47.8 mg/kg/day
same,LOAEL,[3]; [28],47.8 mg/kg/day
same,NEL,[3]; [28],0.6 mg/kg/day
same,NOAEL,[3]; [28],0.6 mg/kg/day
same,LEL,[4],60.9 mg/kg/day
same,LOAEL,[4],60.9 mg/kg/day
same,NEL,[4],29.4 mg/kg/day
same,NOAEL,[4],29.4 mg/kg/day
CC(C)N(C(=O)CCl)c1ccccc1 [Propachlor],LEL,[5]; [29],2.5 mg/kg/day
same,NEL,[5]; [29],< 2.5 mg/kg/day
same,LOAEL,[5]; [30],> 37.5 mg/kg/day
same,NOAEL,[5]; [30],≥ 37.5 mg/kg/day
same,LEL,[6]; [27],69.6 mg/kg/day
same,LOAEL,[6]; [27],69.6 mg/kg/day
same,NEL,[6]; [31],7.1 mg/kg/day
same,NOAEL,[6]; [31],7.1 mg/kg/day
same,LEL,[6]; [32],69.6 mg/kg/day
same,LOAEL,[6]; [32],69.6 mg/kg/day
same,NEL,[6]; [32],7.1 mg/kg/day
same,NOAEL,[6]; [32],7.1 mg/kg/day
same,LEL,[6]; [33],141 mg/kg/day
same,LOAEL,[6]; [33],> 141 mg/kg/day
same,NOAEL,[6]; [33],≥ 141 mg/kg/day
same,LEL,[7],50 mg/kg/day
same,LOAEL,[7],50 mg/kg/day
same,NEL,[7],5 mg/kg/day
same,NOAEL,[7],5 mg/kg/day
same,LEL,[8]; systemic / organ weight / liver / nos,75 mg/kg/day
same,NEL,[8]; systemic / organ weight / liver / nos + systemic / organ weight / kidney / nos + systemic / pathology microscopic / liver / hypertrophy,14.6 mg/kg/day
same,LOAEL,[8]; [34],223 mg/kg/day
same,NOAEL,[8]; [34],75 mg/kg/day
same,LEL,[9]; [35],0.625 mg/kg/day
same,LOAEL,[9]; [35],> 25 mg/kg/day
same,NEL,[9]; [35],< 0.625 mg/kg/day
same,NOAEL,[9]; [35],≥ 25 mg/kg/day
same,LOAEL,[9]; [36],25 mg/kg/day
same,NOAEL,[9]; [36],6.25 mg/kg/day
same,LEL,[9]; [37],0.625 mg/kg/day
same,NEL,[9]; [37],< 0.625 mg/kg/day
same,LEL,[10]; systemic / clinical chemistry / aspartate aminotransferase (ast/sgot) / aspartate aminotransferase (ast/sgot),16.1 mg/kg/day
same,LOAEL,[10]; [38],125 mg/kg/day
same,NEL,[10]; [38],5.4 mg/kg/day
same,NOAEL,[10]; [38],53.6 mg/kg/day
FC(F)(F)C(Cl)Br (centres undefined) [Halothane],LEL,[11],12.5 ppm
same,LOAEL,[11],> 12.5 ppm
same,NEL,[11],< 12.5 ppm
same,NOAEL,[11],≥ 12.5 ppm
CC1(C)C(C(=O)OC(C#N)c2cccc(Oc3ccccc3)c2)C1(C)C (centres undefined) [Fenpropathrin],LOAEL,[12]; systemic / clinical chemistry / alkaline phosphatase (alp/alk) / alkaline phosphatase (alp/alk) + systemic / hematology / blood clotting / …,30 mg/kg/day
same,LEL,[12]; systemic / clinical chemistry / urea nitrogen / urea,5 mg/kg/day
same,NEL,[12]; [39],1.5 mg/kg/day
same,NOAEL,[12]; [39],15 mg/kg/day
same,LEL,[13],6.25 mg/kg/day
same,LOAEL,[13],6.25 mg/kg/day
same,NEL,[13],< 6.25 mg/kg/day
same,NOAEL,[13],< 6.25 mg/kg/day
same,LEL,[14],27 mg/kg/day
same,LOAEL,[14],27 mg/kg/day
same,NEL,[14],13 mg/kg/day
same,NOAEL,[14],13 mg/kg/day
same,LEL,[15],65.2 mg/kg/day
same,LOAEL,[15],> 65.2 mg/kg/day
same,NEL,[15],16.2 mg/kg/day
same,NOAEL,[15],≥ 65.2 mg/kg/day
same,LOAEL,[16]; systemic / in life observation / clinical signs / tremors,6.25 mg/kg/day
same,LEL,[16]; systemic / in life observation / clinical signs / tremors + systemic / clinical chemistry / glucose / glucose,6.25 mg/kg/day
same,NEL,[16]; [40],2.5 mg/kg/day
same,NOAEL,[16]; [40],2.5 mg/kg/day
Cc1ccc(-c2cc(C(F)(F)F)nn2-c2ccc(S(N)(=O)=O)cc2)cc1 [Celecoxib],LEL,[17],80 mg/kg/day
same,LOAEL,[17],> 160 mg/kg/day
same,NEL,[17],40 mg/kg/day
same,NOAEL,[17],≥ 160 mg/kg/day
CCNc1nc(Cl)nc(NC(C)(C)C)n1 [Terbuthylazine],LEL,[18]; [41],5 mg/kg/day
same,LOAEL,[18]; [41],5 mg/kg/day
same,NEL,[18]; [41],1 mg/kg/day
same,NOAEL,[18]; [41],1 mg/kg/day
same,LEL,[18]; [42],30 mg/kg/day
same,LOAEL,[18]; [42],30 mg/kg/day
same,NEL,[18]; [42],5 mg/kg/day
same,NOAEL,[18]; [42],5 mg/kg/day
same,LOAEL,[19]; [43],1.24 mg/kg/day
same,NOAEL,[19]; [43],< 1.24 mg/kg/day
same,LEL,[19]; [44],1.24 mg/kg/day
same,NEL,[19]; [44],< 1.24 mg/kg/day
same,LEL,[20],3.22 mg/kg/day
same,LOAEL,[20],3.22 mg/kg/day
same,NEL,[20],< 3.22 mg/kg/day
same,NOAEL,[20],< 3.22 mg/kg/day
same,NEL,[21]; [45],0.36 mg/kg/day
same,NOAEL,[21]; [45],0.36 mg/kg/day
same,LEL,[21]; [46],1.6 mg/kg/day
same,LOAEL,[21]; [46],1.6 mg/kg/day
same,LEL,[22]; [47],2.5 mg/kg/day
same,NEL,[22]; [47],< 2.5 mg/kg/day
same,LOAEL,[22]; [48],> 5 mg/kg/day
same,NOAEL,[22]; [48],≥ 5 mg/kg/day
same,LOAEL,[22]; [49],> 5 mg/kg/day
same,NOAEL,[22]; [49],≥ 5 mg/kg/day
same,LEL,[22]; [50],2.5 mg/kg/day
same,NEL,[22]; [50],< 2.5 mg/kg/day
same,LEL,[23],1 mg/kg/day
same,LOAEL,[23],1 mg/kg/day
same,NEL,[23],< 1 mg/kg/day
same,NOAEL,[23],< 1 mg/kg/day
same,LOAEL,[24]; [51],2.28 mg/kg/day
same,NOAEL,[24]; [51],< 2.28 mg/kg/day
same,LEL,[24]; [52],2.28 mg/kg/day
same,NEL,[24]; [52],< 2.28 mg/kg/day
